Reference: the supplement of paper PMC10307832

Experiments:
Experiment in all cases: relative viability (nuclei count vs DMSO), 5 days (fraction); higher = more cells survive
Mirin + Pemetrexed = compound: N=C1NC(=O)/C(=C/c2ccc(O)cc2)S1 [Mirin] + Nc1nc2[nH]cc(CCc3ccc(C(=O)N[C@@H](CCC(=O)O)C(=O)O)cc3)c2c(=O)[nH]1 [Pemetrexed] (partner 0.2 µM)
Procedure, shortened: (§1)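 Relative viability equals treated-well nuclei counts divided by vehicle-well nuclei counts. Counts came from 4× images of lung cancer cell lines grown in 1536-well plates for 5 days after pin-tool dosing on the day after seeding. Dosing used one drug alone or a fixed anchor-drug dose plus five library-drug doses (not always all listed) in √10 steps, and values are medians of duplicate plates.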

[1] = compound: CCC1=CN=CN=C1N2CCN(CC2)CC3=NC4=C(N3)C=C(C=C4)C(F)(F)F + CC1(C)CCC(c2ccc(Cl)cc2)=C(CN2CCN(c3ccc(C(=O)NS(=O)(=O)c4ccc(N[C@H](CCN5CCOCC5)CSc5ccccc5)c(S(=O)(=O)C(F)(F)F)c4)cc3)CC2)C1 [Navitoclax] (partner 0.5 µM)
Procedure, shortened: as §1

[2] = compound: CCn1c(-c2nonc2N)nc2cnc(Oc3cccc(NC(=O)c4ccc(OCCN5CCOCC5)cc4)c3)cc21 + CC1(C)CCC(c2ccc(Cl)cc2)=C(CN2CCN(c3ccc(C(=O)NS(=O)(=O)c4ccc(N[C@H](CCN5CCOCC5)CSc5ccccc5)c(S(=O)(=O)C(F)(F)F)c4)cc3)CC2)C1 [Navitoclax] (partner 0.5 µM)
Procedure, shortened: as §1

[3] = compound: CCn1c(-c2nonc2N)nc2cnc(Oc3cccc(NC(=O)c4ccc(OCCN5CCOCC5)cc4)c3)cc21 + CC(=O)c1c(C)c2cnc(Nc3ccc(N4CCNCC4)cn3)nc2n(C2CCCC2)c1=O [Palbociclib] (partner 0.5 µM)
Procedure, shortened: as §1

Cell Line	relative viability (Mirin + Pemetrexed; first compound 0.25 µM)	relative viability (Mirin + Pemetrexed; first compound 0.7906 µM)	relative viability (Mirin + Pemetrexed; first compound 2.5 µM)	relative viability (Mirin + Pemetrexed; first compound 7.906 µM)	relative viability (Mirin + Pemetrexed; first compound 25 µM)	relative viability ([1]; first compound 0.04 µM)	relative viability ([1]; first compound 0.1265 µM)	relative viability ([1]; first compound 0.4 µM)	relative viability ([1]; first compound 1.265 µM)	relative viability ([1]; first compound 4 µM)	relative viability ([2]; first compound 0.04 µM)	relative viability ([2]; first compound 0.1265 µM)	relative viability ([2]; first compound 0.4 µM)	relative viability ([2]; first compound 1.265 µM)	relative viability ([2]; first compound 4 µM)	relative viability ([3]; first compound 0.04 µM)	relative viability ([3]; first compound 0.1265 µM)	relative viability ([3]; first compound 0.4 µM)	relative viability ([3]; first compound 1.265 µM)	relative viability ([3]; first compound 4 µM)
NCI-H2347	0.424	0.474	0.47	0.422	0.473	0.711	0.733	0.783	0.665	0.729	0.967	0.811	0.858	0.365	0.502	0.432	0.455	0.385	0.376	0.381
NCI-H1792	0.772	0.653	1.15	0.708	0.844	0.323	0.572	0.605	0.697	0.554	0.732	0.58		0.348	0.518	0.694	0.583		0.542	0.582
NCI-H647	0.198	0.161	0.146	0.172	0.111	1.21	0.968			1.04	1.06	0.828	0.89	0.517	0.595	0.494	0.297	0.317	0.235	0.297
NCI-H520	0.654	0.591	0.7	0.545	0.449	1.16	1.01	0.969	0.96	1.03	1.21	1.13	0.955	0.555	0.385	0.242	0.207	0.199	0.176	0.175
HCC-366	0.178	0.251	0.177	0.167	0.218	1.07	1.04	1		1.05	1.25	1.14	1.04	0.178	0.0486	0.367	0.375	0.354	0.105	0.0645
NCI-H2085	0.919	1.03	0.932	0.925	0.932	1.11	1.02	1.21	1.18	0.911	1.39	1.08	1.02	0.937	1.01	0.514	0.44	0.402	0.359	0.39
PC-3 [JPC-3]	1.11	1.03	1.22	1.2	1.29	0.912	0.781	0.745	0.733	0.775	0.846	0.814	0.801	0.866	0.779	0.539	0.548	0.444	0.497	0.482
HOP-62	0.36	0.286	0.316	0.288	0.361	1.06	1.07	1.04	0.898	0.927	1.26	1.07	1.05		1.06	0.45	0.371	0.424	0.279	0.365
NCI-H2126	0.754	0.574	0.758	0.855	0.686	0.818	0.818	0.839	0.794	0.867	0.87	0.822	0.825	0.917	0.84	0.362	0.338	0.355	0.361	0.325
NCI-H2087	0.69	0.715	0.66	0.678	0.708	1.03	0.982	0.914	0.871	0.723		0.789	0.962	0.785	0.598	0.362	0.218	0.336	0.2	0.228
NCI-H1793	0.862		0.895	1.11	0.977	0.381	0.447	0.363		0.435	0.315	0.38	0.305	0.191	0.238	0.263	0.304	0.3	0.283	0.251
RERF-LC-KJ	0.429	0.514	0.485	0.49	0.42	0.906	0.887	0.956	0.698	0.719	0.867	0.828	0.946	0.603	0.481	1.1	1.08	0.969	0.655	0.678
H3255	0.525	0.605	0.626	0.54	0.571	0.489	0.469	0.507	0.49	0.529	0.675	0.551	0.454	0.329	0.35	0.293	0.311	0.318	0.296	0.305
EMC-BAC-2	0.475	0.431	0.452	0.375	0.41	1.15	1.14	1.14	1.14	1.2	1.44	1.2	1.18	1.16	1.19	0.517	0.458	0.397	0.369	0.389
CAL-12T	1.15	1.11	1.15	1.29	1.37	1.26	1.28	1.21	1.23	1.17	1.83	1.46	1.61	1.35	0.955	0.778	0.619	0.47	0.345	0.298
SK-MES-1	0.993	1.09	0.998	1.08	1.01	1.15	1.22	1.07	1.2	1.31	1.32	1.35	1.1		1.05	0.353	0.301	0.284	0.303	0.309
NCI-H1355	1.06	1.09	1.08	1	1.11	0.987	0.919	0.903	0.806	0.973	0.917	0.946	1.01	0.952	0.968	0.321	0.411	0.411	0.397	0.374
PC-14	0.127	0.14	0.143	0.134	0.171	1.02	1.03	1.01	0.984	0.982	1.1	1.01	0.924	0.934	0.748	0.578	0.432	0.466	0.486	0.414
LK-2	0.129		0.257	0.164	0.257	0.773	0.801	0.714	0.688	0.761	0.989	0.928	0.467	0.349	0.686	0.627	0.787	0.541	0.568	0.673
NCI-H1650	0.339	0.382	0.377	0.324	0.359	1.26	1.08	1.22	1.02	1.4	1.79	1.31	1.34	1.08	1.05	0.466	0.32	0.294	0.335	0.328
NCI-H441	0.227	0.262	0.251	0.261	0.251	0.448	0.523	0.57	0.573	0.677	0.745	0.653	0.481	0.323	0.508	0.26	0.234	0.157	0.226	0.25
NCI-H23	0.782		0.643	0.598	0.541	0.845	0.903	0.783	0.749	1.04	1.18	0.956		0.806	0.651	0.708	0.521	0.547	0.394	0.353
NCI-H1395	0.898		0.847	0.829	0.618	1.16	1.14	1.11	0.949	1.12	1.19	1.02	0.982	0.534	0.729	0.562	0.558	0.565	0.457	0.482
NCI-H460	0.0601	0.0695	0.0719	0.0635	0.0557	1.25	1.01	1.01	1.09	1.11	1.07	1.01	1.13	0.393	0.26	0.213	0.126	0.101	0.056	0.073
